{"source": "patent US20250177548A1", "about": "“FUSOGENIC PEPTIDE COMPOSITIONS AND METHODS OF CARGO DELIVERY” (CLEMSON UNIVERSITY, priority 2022, published 2025)", "key": {"RNase A": {"tested_on": "RNase A", "experiment": "gel assay of siRNA protection from RNase A degradation", "format": "in vitro ADME", "settings": "1 hour, several N:P ratios", "experimental": "Gel Shift Assays. DIVA3, DIV3H, and DIV3W (all three denoted as DIV3 (X)) peptides suspended in RNase-free water (10 μM), were thawed, and kept on ice prior to complexation with 10 μM of negative control siGENOME non-targeting siRNA #5 (siNT, GE Healthcare Dharmacon, Lafayette, CO) in RNase-free water and incubated for 20 minutes at room temperature to allow the formation of DIV3 (X)-siNT complexes. Various molar ratios of peptides were complexed with siNT at increasing N:P molar ratios to determine the minimum molar ratio necessary to completely complex free siRNAs using an electrophoretic mobility shift assay. To determine the ability of each peptide variant to protect siRNAs from degradation, DIV3 (X)-siNT complexes or siNT alone was left untreated or incubated with either 50% v/v FBS or 5 μg/mL RNase A at 37° C. for one hour. Next, complexes were dissociated using 6% sodium dodecyl sulfate (SDS). Samples were added to a 2% agarose gel and run at 100 V. Gels were stained with ethidium bromide, destained with Milli-Q water, and imaged using a ChemiDoc XRS imager (Bio-Rad, Hercules, CA).\nCharacterization of Nanoparticle Size and Stability. To determine the minimum molar ratio necessary to completely complex free siRNAs, increasing N:P molar ratios of LHRH, DIV3W, and LHRH-DIV3W peptide were complexed with siRNAs and electrophoresed using a electrophoretic mobility shift assay. Molar ratios, shown as N:P, are representations of the molar amine peptide content in relation to 1 mole of phosphate group siRNA content. To determine the ability of the peptides to protect siRNAs from serum- or RNase-mediated degradation, LHRH and LHRH-DIV3W complexes were formed in RNase-free water with siNT at increasing N:P molar ratios and incubated at 37° C., 5% CO2, 50% v/v FBS, 5 μg/mL RNase A, or 50% v/v RNase free water for 1 hour. Peptide/siRNA complexes were dissociated using 6% sodium dodecyl sulfate (SDS) prior to electrophoresis in a 2% agarose gel run at 100 V. Gels were stained with ethidium bromide, washed with Milli-Q water, and imaged with a BioRad ChemiDoc XRS imager (BioRad, Hercules, CA).\nPeptides VA-LD and GF-LD, comprising the cleavable linker VA or GLFG, respectively, between the LHRH target sequence and the DIV3W peptide, and non targeting siRNA were electrostatically complexed at increasing N:P ratios then subjected to agarose gel electrophoresis to determine optimal siRNA binding for each peptide. […] Peptide-siRNA nanocomplexes at increasing N:P ratios for peptides for VA-LD (FIG. 30A) and GF-LD (FIG. 30C) were incubated in either Rnase A enzyme or in 50% fetal bovine serum (FBS) for 1 h, dissociated using SDS then subjected to gel electrophoresis to visualize siRNA bands. Gels showing increasing N:P ratios of peptide:siRNA for VA-LD (FIG. 30B) and GF-LD (FIG. 30D) from 20:1 to 80:1 N:P; white bands are indicative of intact siRNA"}, "CK2α protein": {"tested_on": "CK2α protein", "experiment": "Western blot of CK2α in OVCAR3 cells", "format": "cell-based", "settings": "OVCAR3, 48 hours, 50:1 N:P ratio", "experimental": "Western Blot. […] Cells were washed and treated with DIV3 (X)-siRNA complexes as previously described. Following the 48-hour treatment, cells were washed with 1× PBS and lysed with cold radioimmunoprecipitation assay (RIPA) buffer supplemented with protease inhibitor cocktail (Thermo Fisher). Protein concentrations were determined via bicinchoninic assay according to the manufacturer's protocol and absorbance was read at 562 nm. Equivalent protein concentrations for each treatment condition were separated by SDS-PAGE on a BioRad Stain-Free 10% gel according to BioRad protocols and transferred to a Stain-Free PVDF membrane using a wet transfer system. The PVDF membrane was cut at appropriate molecular weight intervals consistent with protein weights, then analyzed and blocked for 1 hour with 5% non-fat dried milk solution in 1× Tris-HCl-buffered-saline-0.1% Tween 20 (TBST) at room temperature. Blots were probed at 4° C. overnight with rabbit monoclonal anti-CK2α antibody (1:1000, Invitrogen) or mouse monoclonal anti-β-actin (1:10,000, Sigma-Aldrich, St. Louis, MO). […] Five additional washes with 1× TBST were performed and protein bands were detected with SuperSignal West Pico Plus Chemiluminescent Substrate (Thermo Fisher) and imaged using a BioRad ChemiDoc Imaging System."}, "CSNK2A1 mRNA": {"tested_on": "CSNK2A1 mRNA", "experiment": "qPCR of CSNK2A1 mRNA in OVCAR3 cells", "format": "cell-based", "experimental": "qRT-PCR. Cells were seeded at 50,000 cells per well and treated with siRNA targeting CSNK2A1 (siCSNK2A1 #s3638, Thermo Fisher Scientific) at increasing N:P ratios and incubated for a total of 48 hours in McCoys 5A/DMEM-10% FBS. Treated cells were washed with 1×PBS at 24 hours and fresh media was added. RNAisolation was completed using a Qiagen Mini-RNeasy Kit (Qiagen, Hilden, Germany) according to the manufacturer's protocol. RNA isolation quality and quantity were measured through the Gen5 protocol using a Take3 plate (BioTek). RNA was reverse-transcribed using the QuantiTect Reverse Transcription kit (Qiagen). Quantitative real-time PCR was completed with a QuantStudio 3 qPCR system (Applied Biosystems) using Applied Biosystems TaqMan FAST Master Mix (Thermo Fisher) and CSNK2A1 (ID #Hs00751002_s1) and 18S (ID #Hs99999901_s1) predesigned TaqMan probes, according to the manufacturer's protocol.\nGene and Protein Knockdown. Bioactivity of siRNAs was determined via qPCR and western blot analysis. OVCAR3 or CAOV3 cells were seeded at 50,000 cells per well as previously described and treated with siRNA targeting CSNK2A1 and siNT at N:P ratios 30:1, 40:1, 50:1, 60:1, and 70:1. LHRH-DIV3W peptide complexed with either siNT or siCSNK2A1 was incubated for a total of 48 hours in RPMI 1640/DMEM-10% FBS, with one media exchange occurring after the 24-hour timepoint. Treated cells were washed with 1×PBS at 24 hours and fresh media was added. RNA isolation was completed using a Qiagen Mini-RNeasy Kit (Qiagen, Hilden, Germany) according to the manufacturer's protocol. RNA isolation quality and quantity was measured through the Gen5 protocol using a Take3 plate (BioTek). RNA was reverse transcribed using the QuantiTect Reverse Transcription kit (Qiagen) according to the manufacturer's protocol. Quantitative real-time PCR was completed with a QuantStudio 3 qPCR system (Applied Biosystems, Waltham, MA) using Applied Biosystems TaqMan FAST Master Mix (Thermo Fisher) and CSNK2A1 (ID #Hs00751002_s1) and 18S (ID #Hs99999901_s1) predesigned TaqMan probes according to the manufacturer's protocol."}}, "note": "Non-standard residues stand in square brackets, D forms with d. No end group written: not given here. pG = not defined here"}
{"substance": "pGHWSY-(d) LLRPGGGGGWEADIVADIVWDIVADIVAGGG-(d) RRRRRRRRR ([pG]HWSY[dL]LRPGGGGGWEADIVADIVWDIVADIVAGGG[dR][dR][dR][dR][dR][dR][dR][dR][dR]; reading uncertain) [LHRH-DIV3W]", "values": [{"measurement": "intact siRNA after incubation with RNase A", "setting": "RNase A", "result": "Higher N:P ratios were required for full protection"}, {"measurement": "CK2α protein expression", "setting": "CK2α protein", "result": "slight reduction in protein band intensity"}, {"measurement": "CSNK2A1 mRNA expression, % of negative control", "setting": "CSNK2A1 mRNA; 50:1, vs LHRH-DIV3W-siNT", "result": "59.75%±12.61%"}, {"measurement": "CSNK2A1 mRNA expression, % of negative control", "setting": "CSNK2A1 mRNA; 60:1, vs LHRH-DIV3W-siNT", "result": "72.17%±23.19%"}, {"measurement": "CSNK2A1 mRNA expression, % of negative control", "setting": "CSNK2A1 mRNA; 70:1, vs LHRH-DIV3W-siNT", "result": "51.88%±9.87%"}, {"measurement": "cytotoxicity of peptide alone", "setting": "OVCAR3 cells", "result": "did not cause cytotoxic effects"}, {"measurement": "viability", "setting": "OVCAR3 cells", "result": 109.66, "unit": "%+0.8%"}]}
